Source: patent publication US20240261283A1, “PHARMACEUTICAL PREPARATION FOR PREVENTING OR TREATING PULMONARY FIBROSIS” (J2H BIOTECH INC., priority 2021, published 2024)

Experiments:
[1] = system: pulmonary fibrosis mouse model induced by radiation; test: Radiation-induced pulmonary fibrosis mouse model, collagen deposition by Masson's trichrome staining of lung tissue; type: in vivo, C57BL/6 mice; conditions: radiation 90 Gy to chest; oral, twice a day, 14 days; nintedanib 30 mg/kg (G2), Chemical Formula 1 compound 10 mg/kg (G3), combination 10 + 30 mg/kg (G4); compared to vehicle group (G1)
Method: The test compound was administered orally to C57BL/6 male 8-week-old mice, and 1 hour later, radiation (90 Gy, 4 mm collimator) was irradiated to the chest at a size of 3 mm. Afterwards, test compounds were administered orally twice a day for 14 days, and then an autopsy was performed. Mouse lung tissue was fixed with 10% formalin, paraffin sections were made, and the degree of collagen deposition within the tissue was confirmed using trichrome staining.
According to Reference Example 1, test compounds were administered to a mouse model of radiation-induced pulmonary fibrosis and an autopsy was performed. Mouse lung tissue was fixed in 10% neutral formalin for one day and paraffin sections were made. To remove paraffin around the tissue, it was sequentially reacted in xylene, 95, 90, and 70% ethanol solutions for 5 minutes each. To activate the tissue antigen, the tissue was immersed in a 0.1 M citric acid (pH 6.0) solution and boiled for 20 minutes. Then, it was sequentially reacted with Bouin's solution for 1 minute, Weigert's hematoxylin for 10 minutes, Phosphotunstic/phosphomolydic acid for 10 minutes, aniline blue for 5 minutes, and 1% acetic acid for 1 minute. Next, after a dehydration process, it was sealed with a cover glass and observed under a microscope (Carl Zeiss Vision).

[2] = system: bleomycin-induced pulmonary fibrosis mouse model; test: Bleomycin-induced pulmonary fibrosis mouse model, hydroxyproline in lung tissue lysate by ELISA; type: in vivo, C57BL/6N mice; conditions: oral, twice a day, 14 days
Method: C57BL/6N mice were anesthetized using isoflurane. Afterwards, an incision was made in the center of the neck to expose the airway. Bleomycin dissolved in physiological saline injection solution was slowly injected at 1.25 mg/kg into the exposed upper respiratory tract using an insulin syringe. Afterwards, the insulin syringe was removed and the incision was sutured. Afterwards, test compounds were administered orally twice a day for 14 days, and then an autopsy was performed. The mouse's left lung tissue was fixed with 10% formalin, paraffin sections were made, and the degree of lung fibrosis was evaluated using H&E staining. The right lung was tissue lysed for qPCR and hydroxyproline measurements. Afterwards, it was used in each experiment to evaluate the expression of lung fibrosis-related genes and the degree of collagen deposition in the lung.
According to Reference Example 2, test compounds were administered to a mouse model of bleomycin-induced pulmonary fibrosis and an autopsy was performed. The left lung tissue of the mouse was fixed in 10% neutral formalin for one day and paraffin sections were made. To remove paraffin around the tissue, it was sequentially reacted in xylene, 95, 90, and 70% ethanol solutions for 5 minutes each. […] The other half of the tissue was lysed and the lysate was analyzed using a hydroxyproline ELISA kit.

| Structure (SMILES) | anti-fibrotic effect of suppressing collagen deposition (trichrome staining, FIGS. 1 and 2) [1] | collagen deposition, primary evaluation index of pulmonary fibrosis (conclusion of Example 2) ([2]; bleomycin-induced model, doses as in Table 2) | expression of hydroxyproline in lung tissue (FIG. 5) ([2]; bleomycin 1.25 mg/kg, Chemical Formula 1 compound 30, 100, 200 mg/kg (G3-G5), combination 60 + 30 mg/kg (G6), nintedanib 60 mg/kg (G7), compared to vehicle group (G2)) |
| --- | --- | --- | --- |
| C[C@@H]1CN(c2ccc(S(C)(=O)=O)cc2F)CCN1c1nccc(C(=O)N[C@H]2C3CC4CC2C[C@](O)(C4)C3)n1 [compound of Chemical Formula 1, 2-((R)-4-(2-fluoro-4-(methylsulfonyl)phenyl)-2-methylpiperazin-1-yl)-N-((1R,2s,3S,5S,7S)-5-hydroxyadamantan-2-yl)pyrimidine-4-carboxamide] | significantly inhibits collagen deposition | significantly inhibits collagen deposition |  |
| COC(=O)c1ccc2c(c1)NC(=O)/C2=C(\Nc1ccc(N(C)C(=O)CN2CCN(C)CC2)cc1)c1ccccc1 [nintedanib] | high significance |  | significant differences were confirmed in all administration groups except the nintedanib single administration group (G7) |
